This is an account of results in ChEMBL document CHEMBL3612051, “Carbonic anhydrase inhibitors: Design, synthesis and structural characterization of new heteroaryl-N-carbonylbenzenesulfonamides targeting druggable human carbonic anhydrase isoforms” (Eur J Med Chem, 2015).

The target of one test is Carbonic anhydrase 9 (Homo sapiens, UniProt Q16790). Description: Inhibition of human recombinant full length carbonic anhydrase 9 preincubated for 15 mins by stopped-flow CO2 hydration assay.
For a further test, the target named is Carbonic anhydrase 7 (Homo sapiens, UniProt P43166). In words: Inhibition of human recombinant full length carbonic anhydrase 7 preincubated for 15 mins by stopped-flow CO2 hydration assay.
Sequence of Carbonic anhydrase 7 (P43166 whole entry): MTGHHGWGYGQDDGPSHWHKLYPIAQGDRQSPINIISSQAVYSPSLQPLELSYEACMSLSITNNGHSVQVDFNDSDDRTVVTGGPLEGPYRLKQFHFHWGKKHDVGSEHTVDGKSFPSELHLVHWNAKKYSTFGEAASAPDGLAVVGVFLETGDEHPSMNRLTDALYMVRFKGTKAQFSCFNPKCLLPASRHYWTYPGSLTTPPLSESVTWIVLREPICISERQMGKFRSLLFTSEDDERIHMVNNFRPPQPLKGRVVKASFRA

Structures are written as SMILES.

One may read the Ki as a dissociation constant, usually derived from enzyme kinetics or from competition with a known ligand. Regarding `NS(=O)(=O)c1ccc(C(=O)N2CCc3cc(O)c(O)cc3C2)cc1`, at Carbonic anhydrase 9, the Ki is 5.01 nM.

For the molecule `COc1cc2c(cc1OC)CN(C(=O)c1ccc(S(N)(=O)=O)cc1)CC2`, on Carbonic anhydrase 9, the Ki is 6.1 nM.

On to `NS(=O)(=O)c1ccc(C(=O)N2CCCc3cc(O)ccc32)cc1`, for which the Ki at Carbonic anhydrase 9 is 42 nM.

Consider `COc1ccc2c(c1)CCN(C(=O)c1ccc(S(N)(=O)=O)cc1)C2`, for which the Ki on Carbonic anhydrase 9 was determined as 27 nM.

For the molecule `NS(=O)(=O)c1ccc(C(=O)N2CCc3ccccc3C2)cc1`, the Ki on Carbonic anhydrase 9 came out at 7.5 nM.

Take `NS(=O)(=O)c1ccc(C(=O)N2CCc3cc(O)ccc3C2)cc1`: the Ki on Carbonic anhydrase 9 was found to be 28 nM.

As for `NS(=O)(=O)c1ccc(C(=O)N2CCCc3ccccc32)cc1`, the Ki on Carbonic anhydrase 9 came out at 9.4 nM.

For orientation: IC50 means the concentration needed to halve the response being measured. On to `COc1ccc2c(c1)CCCN2C(=O)c1ccc(S(N)(=O)=O)cc1`, for which the Ki on Carbonic anhydrase 9 was 6.5 nM. Also, the IC50 at Carbonic anhydrase 7 was above 50000 nM.
